Experimental findings from patent publication EP0345906B1, “Unique elastase induced fibrinogen cleavage site antigens” (MERCK & CO. INC., priority 1988, dated 1989) are described below.

The term inhibition denotes how much of the control response was suppressed.

Experiment [1] deals with whole human blood. The experiment in a line: In vitro production of Aα 17-21 epitope containing peptide in human blood, other membrane perturbators with cytochalasin B. Format: cell-based. To be noted: 5 mg/ml cytochalasin B. The method, then: Other known membrane perturbators have been used to evaluate the in vitro production of the epitope containing cleavage peptide Aα 17-21 in human blood. Aliquots of freshly-drawn heparinized whole blood were incubated for 25 minutes at 37°C in the presence of either 5 mg/ml cytochalasin B and concentrations of phorbol-12-myristate-13-acetate (PMA) ranging up to 20 mM or in the presence of the combination of 5 mg/ml cytochalasin B and concentrations of n-formyl-L-norleucyl-L-leucyl-L-phenylalanine (FNLP) ranging up to 20 mM. Plasma was collected, prepared and assayed as described above.

Experiment [2] concerns the target T1, human leukocyte elastase (Homo sapiens, UniProt P08246).
T1 construct: exposure of whole human blood to calcium ionophore A23187 results in elastase cleavage product by allowing the release of neutrophil elastase; endogenous in cells; host or cells: leukocytes (neutrophils) in freshly drawn heparinized whole human blood, stimulated with A23187
T1 sequence (P08246 30-267): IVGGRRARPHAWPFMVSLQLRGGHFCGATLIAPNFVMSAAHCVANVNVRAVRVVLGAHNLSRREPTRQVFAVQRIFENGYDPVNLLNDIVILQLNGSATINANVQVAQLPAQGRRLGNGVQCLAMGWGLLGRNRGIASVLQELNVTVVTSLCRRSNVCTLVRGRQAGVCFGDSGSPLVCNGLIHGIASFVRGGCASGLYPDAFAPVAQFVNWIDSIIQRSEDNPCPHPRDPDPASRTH
The experiment in a line: Elastase inhibitor activity assay: A23187-stimulated fibrinogen cleavage peptide production in whole human blood. To be noted: A23187 150 mM. The class given is cell-based. The method, then: The above defined assay technology is used to monitor the activity of human elastase inhibitors on human leukocyte elastase activity in human and primate blood. […] Replicate aliquots of freshly-drawn heparinized whole human blood are prepared with concentrations of elastase inhibitor ranging up to about 300 mg/ml. Following a brief pre-incubation with the inhibitor, a membrane perturbator, such as calcium ionophore A23187, is added at a concentration of between about 75 mM and about 300 mM. Non-membrane perturbator controls containing blood and perturbator-only controls are included to measure the extent of uninhibited peptide generation. All assay samples are incubated at about 37°C for about 25 minutes. The plasma is then prepared and assayed for fibrinogen cleavage products as described above.
The effect of the elastase inhibitor 3-Acetoxymethyl-1a-methoxy-6-oxo-5-thia-1-azabicyclo[4.2.0]oct-2-ene-2-(2-(S)-carboxypyrrolidinecarboxamide)5,5-dioxide (compound 1) on the calcium ionophore A23187-induced fibrinogen cleavage peptide production was evaluated. Replicate 2 ml aliquots of freshly-drawn heparinized whole human blood were prepared with concentrations of compound 1 ranging up to […]. Following a brief pre-incubation of 5 minutes at 37°C, calcium ionophore A23187 was added to a final concentration of 150 mM. Non-ionophore containing blood and ionophore-only (no inhibitor) controls were included to measure the extent of uninhibited peptide generation. All aliquots were incubated at 37°C for 25 minutes, the plasma collected, processed and assayed for fibrinogen cleavage peptide as described above.

In experiment [3] the test system is leukocyte elastase. In words: Ionophore-induced peptide production in blood drawn from an elastase inhibitor-treated chimpanzee. Format: in vivo. The method, then:
In vivo inhibition of fibrinogen cleavage products following treatment of primates with an elastase inhibitor is evaluated. Blood or fluid samples are collected both before and after treatment with either an elastase inhibitor or saline. Each heparinized blood sample is divided into about 4 aliquots (about 1 ml) and processed as described above. Treatment of an animal with an elastase inhibitor causes a marked reduction in the amount of elastase cleavage product produced.
Two chimpanzees were anesthetized and fitted with venous catheters for the collection of blood. Blood was collected from each animal at intervals over a 60 minute period prior to the administration of the elastase inhibitor. All blood samples were collected in heparin. After the initial 60 minute period one animal was given an intravenous injection of 10 mg/kg of the elastase inhibitor compound 1 while the other animal received an equivalent volume of normal saline. Additional heparinized blood samples were taken from both animals at regular intervals over the next 60 minutes. Each freshly-drawn sample of whole heparinized chimpanzee blood was divided into 4 aliquots. Calcium ionophore A23187 was added at a final concentration of 150 mM to two of the aliquots and an equivalent volume of the DMSO vehicle was added to the other two. All blood samples were incubated at 37° for 25 minutes, plasma collected and assayed as described above.
Elastase inhibitor was infused into the treated animal at time 0.

As to `CCCCCCCCCCCCCC(=O)O[C@@H]1[C@@H](C)[C@@]2(O)[C@@H](C=C(CO)C[C@]3(O)C(=O)C(C)=C[C@@H]23)[C@@H]2C(C)(C)[C@]12OC(C)=O` [PMA, phorbol-12-myristate-13-acetate], the “Aα 17-21 Epitope Containing Peptide Produced (picomoles/ml plasma)” value was determined as 0.0 picomoles/ml plasma in experiment [1] (PMA 0.003 mMolar, 25 minutes at 37°C); 0.3 picomoles/ml plasma in experiment [1] (PMA 0.010 mMolar); 0.3 picomoles/ml plasma in experiment [1] (PMA 0.03 mMolar); 0.4 picomoles/ml plasma in experiment [1] (PMA 0.10 mMolar); 0.9 picomoles/ml plasma in experiment [1] (PMA 0.30 mMolar); 1.5 picomoles/ml plasma in experiment [1] (PMA 1.0 mMolar). The “Aα 17-21 Epitope Containing Peptide Produced (picomoles/ml plasma)” value in experiment [1] (PMA 3.0 mMolar) is 2.6 picomoles/ml plasma; in experiment [1] (PMA 10.0 mMolar) it was 3.0 picomoles/ml plasma; in experiment [1] (PMA 20.0 mMolar), 3.7 picomoles/ml plasma.
As to `COC1C(=O)N2C(C(=O)N3CCCC3C(=O)O)=C(COC(C)=O)CS(=O)(=O)C12` [compound 1, 3-Acetoxymethyl-1a-methoxy-6-oxo-5-thia-1-azabicyclo[4.2.0]oct-2-ene-2-(2-(S)-carboxypyrrolidinecarboxamide)5,5-dioxide], the “Cleavage Product Produced picomoles/ml” value was 2.3 picomoles/ml in experiment [2] (Elastase Inhibitor 1 mg/ml); 1.6 picomoles/ml in experiment [2] (Elastase Inhibitor 5 mg/ml); 1.6 picomoles/ml in experiment [2] (Elastase Inhibitor 10 mg/ml); 1.5 picomoles/ml in experiment [2] (Elastase Inhibitor 20 mg/ml); 1.2 picomoles/ml in experiment [2] (Elastase Inhibitor 30 mg/ml); 0.8 picomoles/ml in experiment [2] (Elastase Inhibitor 40 mg/ml). In addition, the “Cleavage Product Produced picomoles/ml” value in experiment [2] (Elastase Inhibitor 80 mg/ml) is reported as 0.4 picomoles/ml. Moreover, the inhibition at 1000 µg/mL in experiment [2] (Elastase Inhibitor 1 mg/ml, read-out: Percent Inhibition) turned out to be 4%. In addition, the “A 1-21 Peptide Produced (picomoles/ml plasma) Treated” value in experiment [3] (Time 1.0 min after intravenous injection of 10 mg/kg, blood stimulated with A23187 150 mM) is 1.10 picomoles/ml plasma; in experiment [3] (Time 2.5 min after intravenous 10 mg/kg), 1.30 picomoles/ml plasma; in experiment [3] (Time 5.0 min after intravenous 10 mg/kg) it was 1.60 picomoles/ml plasma; in experiment [3] (Time 7.5 min after intravenous 10 mg/kg), 2.00 picomoles/ml plasma; in experiment [3] (Time 10.0 min after intravenous 10 mg/kg) it was 1.80 picomoles/ml plasma; in experiment [3] (Time 12.5 min after intravenous 10 mg/kg), 1.70 picomoles/ml plasma. In addition, the “A 1-21 Peptide Produced (picomoles/ml plasma) Treated” value stood at 0.98 picomoles/ml plasma in experiment [3] (Time 15.0 min after intravenous 10 mg/kg); 1.90 picomoles/ml plasma in experiment [3] (Time 20.0 min after intravenous 10 mg/kg); 2.20 picomoles/ml plasma in experiment [3] (Time 30.0 min after intravenous 10 mg/kg); 3.10 picomoles/ml plasma in experiment [3] (Time 40.0 min after intravenous 10 mg/kg); 2.60 picomoles/ml plasma in experiment [3] (Time 50.0 min after intravenous 10 mg/kg); 2.50 picomoles/ml plasma in experiment [3] (Time 60.0 min after intravenous 10 mg/kg). In addition, the “levels of the fibrinogen peptide produced in response to calcium ionophore A23187 after infusion” value in experiment [3] (treated chimpanzee, 10 mg/kg intravenous, in words) is given as “markedly lower levels”.
Take “n-formyl-L-norleucyl-L-leucyl-L-phenylalanine [FNLP]”: the “Aα 17-21 Epitope Containing Peptide Produced (picomoles/ml plasma)” value in experiment [1] (FNLP 0.001 mMolar, 25 minutes at 37°C) is on record as 0.0 picomoles/ml plasma; in experiment [1] (FNLP 0.003 mMolar), 0.0 picomoles/ml plasma; in experiment [1] (FNLP 0.010 mMolar) it was 0.0 picomoles/ml plasma; in experiment [1] (FNLP 0.03 mMolar), 0.4 picomoles/ml plasma; in experiment [1] (FNLP 0.1 mMolar) it was 0.9 picomoles/ml plasma; in experiment [1] (FNLP 0.3 mMolar) it was 1.1 picomoles/ml plasma. The “Aα 17-21 Epitope Containing Peptide Produced (picomoles/ml plasma)” value in experiment [1] (FNLP 1.0 mMolar) is 1.1 picomoles/ml plasma; in experiment [1] (FNLP 3.0 mMolar), 1.3 picomoles/ml plasma; in experiment [1] (FNLP 10.0 mMolar) it was 1.2 picomoles/ml plasma; in experiment [1] (FNLP 20.0 mMolar), 1.3 picomoles/ml plasma.
